Measured values as given in publication PMC9653409, “Generative deep learning enables the discovery of a potent and selective RIPK1 inhibitor” (Nature Communications, 2022).

Legend:
Assay in all cases: Kinase inhibitory activity profiling of RI-962@10 µM (406 kinases, Eurofins)
Format in all cases: biochemical
[1] = target: panel of human kinases (kinase named in endpoint) (Homo sapiens, UniProt P15056, V600E); conditions: 10 µM; read-out: Activity (%), B-Raf(V599E)(h)
Method in brief: (§1)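 Radiometric filter-binding kinase assays: enzyme preincubated 15 min with compound in 8 mM MOPS pH 7.0, 0.2 mM EDTA, 250 μM peptide substrate, 10 mM magnesium acetate, 10 μM [γ-33P]-ATP. Reaction started with Mg/ATP, run 40 min at room temperature, stopped with phosphoric acid; 33P incorporation read by scintillation counting. Other kinases by similar protocols.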

[2] = target: panel of human kinases (kinase named in endpoint) (Homo sapiens, UniProt O75460); conditions: 10 µM; read-out: Activity (%), IRE1(h)
Method in brief: as §1

[3] = target: panel of human kinases (kinase named in endpoint) (Homo sapiens, UniProt Q13315); conditions: 10 µM; read-out: Activity (%), ATM(h)
Method in brief: as §1

[4] = target: panel of human kinases (kinase named in endpoint) (Homo sapiens, UniProt Q8N5S9); conditions: 10 µM; read-out: Activity (%), CaMKK1(h)
Method in brief: as §1

[5] = target: panel of human kinases (kinase named in endpoint) (Homo sapiens, UniProt P36897); conditions: 10 µM; read-out: Activity (%), TGFBR1(h)
Method in brief: as §1

[6] = target: panel of human kinases (kinase named in endpoint) (Homo sapiens, UniProt P00519, T315I); conditions: 10 µM; read-out: Activity (%), Abl(T315I)(h)
Method in brief: as §1

[7] = target: panel of human kinases (kinase named in endpoint) (Homo sapiens, UniProt P16234, D842V); conditions: 10 µM; read-out: Activity (%), PDGFRα(D842V)(h)
Method in brief: as §1

[8] = target: panel of human kinases (kinase named in endpoint) (Homo sapiens, UniProt Q52WX2); conditions: 10 µM; read-out: Activity (%), SBK1(h)
Method in brief: as §1

[9] = target: panel of human kinases (kinase named in endpoint) (Homo sapiens, UniProt P54646); conditions: 10 µM; read-out: Activity (%), AMPKα2(h)
Method in brief: as §1

[10] = target: panel of human kinases (kinase named in endpoint) (Homo sapiens, UniProt Q09013); conditions: 10 µM; read-out: Activity (%), DMPK(h)
Method in brief: as §1

[11] = target: panel of human kinases (kinase named in endpoint) (Homo sapiens, UniProt P07947); conditions: 10 µM; read-out: Activity (%), Yes(h)
Method in brief: as §1

[12] = target: panel of human kinases (kinase named in endpoint) (Homo sapiens, UniProt Q9HCP0); conditions: 10 µM; read-out: Activity (%), CK1γ1(h)
Method in brief: as §1

[13] = target: panel of human kinases (kinase named in endpoint) (Homo sapiens, UniProt Q2M2I8); conditions: 10 µM; read-out: Activity (%), AAK1(h)
Method in brief: as §1

[14] = target: panel of human kinases (kinase named in endpoint) (Homo sapiens, UniProt Q9UEE5); conditions: 10 µM; read-out: Activity (%), DRAK1(h)
Method in brief: as §1

[15] = target: panel of human kinases (kinase named in endpoint) (Homo sapiens, UniProt Q08881); conditions: 10 µM; read-out: Activity (%), Itk(h)
Method in brief: as §1

[16] = target: panel of human kinases (kinase named in endpoint) (Homo sapiens, UniProt O00311); conditions: 10 µM; read-out: Activity (%), Cdc7/cyclinB1(h)
Method in brief: as §1

[17] = target: panel of human kinases (kinase named in endpoint) (Homo sapiens, UniProt P23458); conditions: 10 µM; read-out: Activity (%), JAK1(h)
Method in brief: as §1

[18] = target: panel of human kinases (kinase named in endpoint) (Homo sapiens, UniProt Q9Y3S1); conditions: 10 µM; read-out: Activity (%), WNK2(h)
Method in brief: as §1

[19] = target: panel of human kinases (kinase named in endpoint) (Homo sapiens, UniProt P12931, T341M); conditions: 10 µM; read-out: Activity (%), Src(T341M)(h)
Method in brief: as §1

[20] = target: panel of human kinases (kinase named in endpoint) (Homo sapiens, UniProt P07948); conditions: 10 µM; read-out: Activity (%), Lyn(h)
Method in brief: as §1

[21] = target: panel of human kinases (kinase named in endpoint) (Homo sapiens, UniProt P17612); conditions: 10 µM; read-out: Activity (%), PKA(h)
Method in brief: as §1

[22] = target: panel of human kinases (kinase named in endpoint) (Homo sapiens, UniProt Q16539); conditions: 10 µM; read-out: Activity (%), SAPK2a(h)
Method in brief: as §1

[23] = target: panel of human kinases (kinase named in endpoint) (Homo sapiens, UniProt Q9UKE5); conditions: 10 µM; read-out: Activity (%), TNIK(h)
Method in brief: as §1

[24] = target: panel of human kinases (kinase named in endpoint) (Homo sapiens, UniProt Q9P2K8); conditions: 10 µM; read-out: Activity (%), GCN2(h)
Method in brief: as §1

[25] = target: panel of human kinases (kinase named in endpoint) (Homo sapiens, UniProt P10721); conditions: 10 µM; read-out: Activity (%), cKit(h)
Method in brief: as §1

Chain of panel of human kinases (kinase named in endpoint) (Homo sapiens, UniProt Q52WX2) (Q52WX2 whole entry): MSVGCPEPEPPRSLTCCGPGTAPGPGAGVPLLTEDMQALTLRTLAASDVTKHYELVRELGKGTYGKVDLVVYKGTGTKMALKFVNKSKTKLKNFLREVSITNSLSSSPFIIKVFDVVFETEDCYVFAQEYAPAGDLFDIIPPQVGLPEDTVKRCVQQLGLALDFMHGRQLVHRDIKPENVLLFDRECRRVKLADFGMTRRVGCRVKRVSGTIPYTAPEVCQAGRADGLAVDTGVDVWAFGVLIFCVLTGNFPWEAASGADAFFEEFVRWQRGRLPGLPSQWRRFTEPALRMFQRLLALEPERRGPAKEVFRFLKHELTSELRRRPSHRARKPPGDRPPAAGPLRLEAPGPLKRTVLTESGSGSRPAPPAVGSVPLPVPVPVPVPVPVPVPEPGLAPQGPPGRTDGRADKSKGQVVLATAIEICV
Chain of panel of human kinases (kinase named in endpoint) (Homo sapiens, UniProt O75460) (O75460 19-977): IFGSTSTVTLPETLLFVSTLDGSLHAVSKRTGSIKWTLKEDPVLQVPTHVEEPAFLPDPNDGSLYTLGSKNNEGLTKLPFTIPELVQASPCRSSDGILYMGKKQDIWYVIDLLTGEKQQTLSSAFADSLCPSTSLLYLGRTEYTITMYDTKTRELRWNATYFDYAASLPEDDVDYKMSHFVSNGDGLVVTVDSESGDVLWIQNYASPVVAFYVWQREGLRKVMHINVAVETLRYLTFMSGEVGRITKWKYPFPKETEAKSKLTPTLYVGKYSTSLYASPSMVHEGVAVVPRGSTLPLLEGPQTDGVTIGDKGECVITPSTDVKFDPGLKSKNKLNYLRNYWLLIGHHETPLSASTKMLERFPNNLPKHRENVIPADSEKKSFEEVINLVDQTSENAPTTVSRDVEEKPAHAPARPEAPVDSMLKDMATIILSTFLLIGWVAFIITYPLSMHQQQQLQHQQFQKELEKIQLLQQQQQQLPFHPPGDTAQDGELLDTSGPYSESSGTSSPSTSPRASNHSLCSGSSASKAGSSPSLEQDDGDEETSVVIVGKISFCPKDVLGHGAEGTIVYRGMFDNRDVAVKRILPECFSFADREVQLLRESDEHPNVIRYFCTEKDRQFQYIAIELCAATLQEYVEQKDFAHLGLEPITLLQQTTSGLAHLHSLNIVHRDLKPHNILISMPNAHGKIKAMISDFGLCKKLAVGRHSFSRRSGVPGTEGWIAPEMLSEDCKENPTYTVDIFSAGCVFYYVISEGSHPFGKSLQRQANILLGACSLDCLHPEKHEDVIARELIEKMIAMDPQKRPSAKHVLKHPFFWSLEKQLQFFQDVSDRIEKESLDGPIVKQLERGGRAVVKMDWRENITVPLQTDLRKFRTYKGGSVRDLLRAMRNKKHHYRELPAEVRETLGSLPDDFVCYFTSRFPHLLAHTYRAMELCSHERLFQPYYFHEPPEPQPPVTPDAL
Chain of panel of human kinases (kinase named in endpoint) (Homo sapiens, UniProt Q2M2I8) (Q2M2I8 whole entry): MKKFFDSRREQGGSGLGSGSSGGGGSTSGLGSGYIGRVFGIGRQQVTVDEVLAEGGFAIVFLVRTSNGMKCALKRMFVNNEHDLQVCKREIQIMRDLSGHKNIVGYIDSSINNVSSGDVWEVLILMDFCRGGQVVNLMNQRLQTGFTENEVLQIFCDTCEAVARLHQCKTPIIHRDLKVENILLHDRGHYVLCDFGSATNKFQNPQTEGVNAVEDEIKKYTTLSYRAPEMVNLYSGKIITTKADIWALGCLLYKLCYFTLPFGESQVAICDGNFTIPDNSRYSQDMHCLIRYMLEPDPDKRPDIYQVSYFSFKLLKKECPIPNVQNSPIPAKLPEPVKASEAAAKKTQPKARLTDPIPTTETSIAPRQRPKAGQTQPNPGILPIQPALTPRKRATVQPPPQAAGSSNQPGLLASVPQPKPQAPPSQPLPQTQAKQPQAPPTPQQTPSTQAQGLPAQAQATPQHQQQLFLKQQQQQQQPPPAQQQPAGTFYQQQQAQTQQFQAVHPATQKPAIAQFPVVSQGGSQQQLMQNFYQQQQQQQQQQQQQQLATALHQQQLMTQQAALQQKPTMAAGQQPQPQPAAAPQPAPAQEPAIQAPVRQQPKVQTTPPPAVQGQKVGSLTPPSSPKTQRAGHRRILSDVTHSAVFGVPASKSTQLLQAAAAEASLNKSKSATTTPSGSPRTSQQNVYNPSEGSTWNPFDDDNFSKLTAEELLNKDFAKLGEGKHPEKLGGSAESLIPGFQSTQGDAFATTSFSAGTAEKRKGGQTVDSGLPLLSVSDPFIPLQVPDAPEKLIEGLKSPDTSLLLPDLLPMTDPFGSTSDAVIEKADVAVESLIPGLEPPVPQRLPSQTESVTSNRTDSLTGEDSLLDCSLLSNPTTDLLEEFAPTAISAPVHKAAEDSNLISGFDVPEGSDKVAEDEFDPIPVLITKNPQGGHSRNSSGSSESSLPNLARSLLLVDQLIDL
Chain of panel of human kinases (kinase named in endpoint) (Homo sapiens, UniProt P07948) (P07948 whole entry): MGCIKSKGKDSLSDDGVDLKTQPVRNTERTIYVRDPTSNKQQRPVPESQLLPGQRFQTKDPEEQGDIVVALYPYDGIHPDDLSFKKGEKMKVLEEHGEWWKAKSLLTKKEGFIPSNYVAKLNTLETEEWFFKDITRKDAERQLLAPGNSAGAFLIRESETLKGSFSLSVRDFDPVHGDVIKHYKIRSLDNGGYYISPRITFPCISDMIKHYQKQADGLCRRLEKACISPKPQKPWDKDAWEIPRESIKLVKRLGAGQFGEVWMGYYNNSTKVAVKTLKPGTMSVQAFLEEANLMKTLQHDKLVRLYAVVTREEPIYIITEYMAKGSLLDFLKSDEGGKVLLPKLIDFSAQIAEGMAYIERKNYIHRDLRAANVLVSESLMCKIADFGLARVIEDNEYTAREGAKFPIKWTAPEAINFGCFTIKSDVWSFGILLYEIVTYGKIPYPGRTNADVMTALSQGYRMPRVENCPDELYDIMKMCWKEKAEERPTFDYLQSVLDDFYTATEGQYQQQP
Chain of panel of human kinases (kinase named in endpoint) (Homo sapiens, UniProt P10721) (P10721 26-976): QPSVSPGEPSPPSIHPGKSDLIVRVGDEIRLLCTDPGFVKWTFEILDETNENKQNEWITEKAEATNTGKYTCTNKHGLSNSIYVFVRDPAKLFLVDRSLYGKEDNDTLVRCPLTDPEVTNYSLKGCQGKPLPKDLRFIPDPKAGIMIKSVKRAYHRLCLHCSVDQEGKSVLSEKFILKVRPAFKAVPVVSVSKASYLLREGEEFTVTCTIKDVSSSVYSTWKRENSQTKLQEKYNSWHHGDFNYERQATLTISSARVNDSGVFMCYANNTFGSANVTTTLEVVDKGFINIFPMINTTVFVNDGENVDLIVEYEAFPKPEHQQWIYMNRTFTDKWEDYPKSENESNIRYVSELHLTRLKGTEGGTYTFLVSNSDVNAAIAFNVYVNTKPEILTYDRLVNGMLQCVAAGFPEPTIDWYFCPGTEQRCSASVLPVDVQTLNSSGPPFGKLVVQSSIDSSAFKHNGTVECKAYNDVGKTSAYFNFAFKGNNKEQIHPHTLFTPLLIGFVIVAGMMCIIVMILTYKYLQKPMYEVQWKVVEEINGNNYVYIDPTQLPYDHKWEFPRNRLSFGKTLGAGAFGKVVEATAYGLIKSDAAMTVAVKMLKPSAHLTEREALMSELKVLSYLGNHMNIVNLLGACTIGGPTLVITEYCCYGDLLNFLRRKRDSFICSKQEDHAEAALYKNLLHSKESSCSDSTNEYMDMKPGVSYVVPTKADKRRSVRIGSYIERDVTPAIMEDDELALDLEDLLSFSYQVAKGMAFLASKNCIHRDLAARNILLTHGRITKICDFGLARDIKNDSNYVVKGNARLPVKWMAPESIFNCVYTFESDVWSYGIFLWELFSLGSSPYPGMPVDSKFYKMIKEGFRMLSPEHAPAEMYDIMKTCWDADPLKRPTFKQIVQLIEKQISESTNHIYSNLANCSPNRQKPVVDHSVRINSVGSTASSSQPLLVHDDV
Chain of panel of human kinases (kinase named in endpoint) (Homo sapiens, UniProt Q08881) (Q08881 whole entry): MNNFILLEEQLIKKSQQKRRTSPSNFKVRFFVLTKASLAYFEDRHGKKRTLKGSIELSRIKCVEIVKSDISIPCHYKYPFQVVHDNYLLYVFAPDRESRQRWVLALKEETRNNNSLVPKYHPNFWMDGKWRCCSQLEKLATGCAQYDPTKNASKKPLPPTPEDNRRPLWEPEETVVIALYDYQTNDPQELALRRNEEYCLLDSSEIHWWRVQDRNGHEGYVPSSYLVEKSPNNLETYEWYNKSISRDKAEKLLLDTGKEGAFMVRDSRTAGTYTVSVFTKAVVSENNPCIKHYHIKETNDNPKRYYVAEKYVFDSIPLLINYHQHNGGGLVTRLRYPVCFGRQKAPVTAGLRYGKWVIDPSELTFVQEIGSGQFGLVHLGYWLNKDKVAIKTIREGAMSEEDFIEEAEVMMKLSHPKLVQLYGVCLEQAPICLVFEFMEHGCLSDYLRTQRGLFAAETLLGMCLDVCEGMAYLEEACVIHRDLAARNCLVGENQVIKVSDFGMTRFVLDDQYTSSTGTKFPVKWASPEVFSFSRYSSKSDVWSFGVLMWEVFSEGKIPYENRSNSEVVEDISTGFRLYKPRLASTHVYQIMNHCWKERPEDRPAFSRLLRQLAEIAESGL
Chain of panel of human kinases (kinase named in endpoint) (Homo sapiens, UniProt O00311) (O00311 whole entry): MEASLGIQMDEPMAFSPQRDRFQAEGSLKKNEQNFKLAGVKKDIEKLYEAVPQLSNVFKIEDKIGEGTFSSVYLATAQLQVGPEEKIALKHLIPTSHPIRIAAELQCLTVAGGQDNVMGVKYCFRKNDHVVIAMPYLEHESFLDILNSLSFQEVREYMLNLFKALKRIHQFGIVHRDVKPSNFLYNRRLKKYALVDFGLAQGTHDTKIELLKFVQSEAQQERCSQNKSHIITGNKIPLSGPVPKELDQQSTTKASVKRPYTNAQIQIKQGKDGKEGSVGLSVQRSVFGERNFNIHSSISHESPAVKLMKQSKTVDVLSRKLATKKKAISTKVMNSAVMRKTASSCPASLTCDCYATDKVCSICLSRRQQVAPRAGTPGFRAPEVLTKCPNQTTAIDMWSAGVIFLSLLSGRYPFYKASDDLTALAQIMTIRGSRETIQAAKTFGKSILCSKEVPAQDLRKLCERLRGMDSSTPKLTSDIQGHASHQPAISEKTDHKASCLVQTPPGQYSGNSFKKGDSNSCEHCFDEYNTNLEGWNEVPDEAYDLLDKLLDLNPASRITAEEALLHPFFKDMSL

SMILES: CC(C)C(=O)Nc1nc2cc(-c3ccc4c(c3)c(C(=O)NC(C)c3ccccc3)cn4C)ccn2n1 (stereo not shown) [RI-962]
- activity at 10 µM [1]: 107%
- activity at 10 µM [2]: 115%
- activity at 10 µM [3]: 85%
- activity at 10 µM [4]: 56%
- activity at 10 µM [5]: 98%
- activity at 10 µM [6]: 132%
- activity at 10 µM [7]: 104%
- activity at 10 µM [8]: 112%
- activity at 10 µM [9]: 89%
- activity at 10 µM [10]: 89%
- activity at 10 µM [11]: 97%
- activity at 10 µM [12]: 94%
- activity at 10 µM [13]: 106%
- activity at 10 µM [14]: 100%
- activity at 10 µM [15]: 71%
- activity at 10 µM [16]: 53%
- activity at 10 µM [17]: 85%
- activity at 10 µM [18]: 79%
- activity at 10 µM [19]: 100%
- activity at 10 µM [20]: 65%
- activity at 10 µM [21]: 97%
- activity at 10 µM [22]: 118%
- activity at 10 µM [23]: 65%
- activity at 10 µM [24]: 76%
- activity at 10 µM [25]: 105%
